Data reported in patent US20250382305A1 (PTC THERAPEUTICS, INC., priority 2022, published 2025).

Key:
[1] = test system: Total ATXN3 (tATXN3) protein; experiment: Endogenous Total ATXN3 (tATXN3) Protein Assay (MSD immunoassay of cell lysates); assay type: cell-based; settings: average IC50, total ATXN3 protein in cell lysate after 48 h with compound (Table 1)
Outline: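 By electrochemiluminescent MSD sandwich immunoassay (mouse monoclonal capture, rabbit monoclonal and SULFO-TAG anti-rabbit detection), endogenous ATXN3 was quantified in lysates of cells treated 48 h at 37° C at 10,000 cells/well. Treatment used a 7-point 3.16-fold duplicate dilution series, with average IC50 grouped into star categories.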

ATXN3 pre-mRNA = experiment: RT-qPCR Assay to Quantify Exon 4 Skipping in ATXN3 pre-mRNA in Cells; assay type: cell-based; settings: percent exon 4 skipping in ATXN3 pre-mRNA, RT-qPCR of cell lysates; average IC50
Outline: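 IC50 derives from a dose-response fit of percent exon 4 skipping, quantified by RT-qPCR on crude lysates. Compounds tested as 7-point 3.16-fold dilutions in duplicate; cells (10,000/well) were exposed for 24 h at 37 °C before lysis.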

SMILES | IC50 [1] | IC50 (ATXN3 pre-mRNA)
CCc1c([C@H]2CCC[C@@H]2N)sc2c(NCc3cccs3)cc(Cl)nc12 [Compound 11, 2-((1S,2S)-2-aminocyclopentyl)-5-chloro-3-ethyl-N-(thiophen-2-ylmethyl)thieno[3,2-b]pyridin-7-amine] | 300 to 1000 nM | 30 to 300 nM
CCc1c([C@@H]2CCC[C@H]2N)sc2c(NCc3cccs3)cc(Cl)nc12 [Compound 12, 2-((1R,2R)-2-aminocyclopentyl)-5-chloro-3-ethyl-N-(thiophen-2-ylmethyl)thieno[3,2-b]pyridin-7-amine] | > 1000 nM | > 1000 nM
N[C@H]1CCCC[C@H]1c1sc2c(NCc3cccs3)cc(Cl)nc2c1Cl [Compound 13, 2-((1R,2S)-2-aminocyclohexyl)-3,5-dichloro-N-(thiophen-2-ylmethyl)thieno[3,2-b]pyridin-7-amine] | 30 to 300 nM | 30 to 300 nM
N[C@@H]1CCCC[C@@H]1c1sc2c(NCc3cccs3)cc(Cl)nc2c1Cl [Compound 14, 2-((1S,2R)-2-aminocyclohexyl)-3,5-dichloro-N-(thiophen-2-ylmethyl)thieno[3,2-b]pyridin-7-amine] | > 1000 nM | > 1000 nM
N[C@@H]1CCCO[C@@H]1c1sc2c(NCc3cccs3)cc(Cl)nc2c1Br [Compound 15, 2-((2S,3R)-3-aminotetrahydro-2H-pyran-2-yl)-3-bromo-5-chloro-N-(thiophen-2-ylmethyl)thieno[3,2-b]pyridin-7-amine] | 300 to 1000 nM | 300 to 1000 nM
N[C@@H]1CCCO[C@H]1c1sc2c(NCc3cccs3)cc(Cl)nc2c1Cl [Compound 16, 2-((2R,3R)-3-aminotetrahydro-2H-pyran-2-yl)-3,5-dichloro-N-(thiophen-2-ylmethyl)thieno[3,2-b]pyridin-7-amine] | > 1000 nM | > 1000 nM
N[C@@H]1CCCO[C@@H]1c1sc2c(NCc3cccs3)cc(Cl)nc2c1Cl [Compound 17, 2-((2S,3R)-3-aminotetrahydro-2H-pyran-2-yl)-3,5-dichloro-N-(thiophen-2-ylmethyl)thieno[3,2-b]pyridin-7-amine] | > 1000 nM | > 1000 nM
N[C@H]1CCCO[C@@H]1c1sc2c(NCc3cccs3)cc(Cl)nc2c1Cl [Compound 18, 2-[(2S,3S)-3-aminotetrahydropyran-2-yl]-3,5-dichloro-N-(2-thienylmethyl)thieno[3,2-b]pyridin-7-amine] | ≤ 30 nM | ≤ 30 nM
N[C@H]1CCCO[C@H]1c1sc2c(NCc3cccs3)cc(Cl)nc2c1Cl [Compound 19, 2-((2R,3S)-3-aminotetrahydro-2H-pyran-2-yl)-3,5-dichloro-N-(thiophen-2-ylmethyl)thieno[3,2-b]pyridin-7-amine] | 30 to 300 nM | 30 to 300 nM
N[C@H]1CCCC[C@@H]1c1cc2nc(Cl)cc(NCc3cccs3)c2s1 [Compound 21, 2-((1S,2S)-2-aminocyclohexyl)-5-chloro-N-(thiophen-2-ylmethyl)thieno[3,2-b]pyridin-7-amine] | 30 to 300 nM | 30 to 300 nM
N[C@H]1CCCC[C@H]1c1cc2nc(Cl)cc(NCc3cccs3)c2s1 [Compound 22, 2-((1R,2S)-2-aminocyclohexyl)-5-chloro-N-(thiophen-2-ylmethyl)thieno[3,2-b]pyridin-7-amine] | 300 to 1000 nM | 300 to 1000 nM
N[C@@H]1CCCC[C@H]1c1cc2nc(Cl)cc(NCc3cccs3)c2s1 [Compound 23, 2-((1R,2R)-2-aminocyclohexyl)-5-chloro-N-(thiophen-2-ylmethyl)thieno[3,2-b]pyridin-7-amine] | > 1000 nM | > 1000 nM
N[C@H]1CCCC[C@]1(O)c1sc2c(NCc3cccs3)cc(Cl)nc2c1Cl [Compound 31, (1R,2S)-2-amino-1-(3,5-dichloro-7-((thiophen-2-ylmethyl)amino)thieno[3,2-b]pyridin-2-yl)cyclohexan-1-ol] | > 1000 nM | > 1000 nM
N[C@H]1CCCC[C@]1(F)c1sc2c(NCc3cccs3)cc(Cl)nc2c1Cl [Compound 32, 2-((1R,2S)-2-amino-1-fluorocyclohexyl)-3,5-dichloro-N-(thiophen-2-ylmethyl)thieno[3,2-b]pyridin-7-amine] | 30 to 300 nM | 30 to 300 nM
Cc1c([C@H]2OCCC[C@@H]2N)sc2c(NCc3ccccc3F)cc(Cl)nc12 [Compound 33, 2-((2S,3S)-3-aminotetrahydro-2H-pyran-2-yl)-5-chloro-N-(2-fluorobenzyl)-3-methylthieno[3,2-b]pyridin-7-amine] | 30 to 300 nM | 30 to 300 nM
N[C@H]1CCCC[C@]1(F)c1sc2c(NCc3ccccc3)cc(Cl)nc2c1Br [Compound 37, 2-((1R,2S)-2-amino-1-fluorocyclohexyl)-N-benzyl-3-bromo-5-chlorothieno[3,2-b]pyridin-7-amine] | 300 to 1000 nM | 30 to 300 nM
N[C@H]1CCCC[C@]1(F)c1sc2c(NCc3ccco3)cc(Cl)nc2c1Cl [Compound 38, 2-((1R,2S)-2-amino-1-fluorocyclohexyl)-3,5-dichloro-N-(furan-2-ylmethyl)thieno[3,2-b]pyridin-7-amine] | 30 to 300 nM | 30 to 300 nM
Cc1c([C@@]2(F)CCCC[C@@H]2N)sc2c(NCc3ccco3)cc(Cl)nc12 [Compound 41, 2-((1R,2S)-2-amino-1-fluorocyclohexyl)-5-chloro-N-(furan-2-ylmethyl)-3-methylthieno[3,2-b]pyridin-7-amine] | 30 to 300 nM | 30 to 300 nM
N[C@@H]1CCCO[C@H]1c1sc2c(NCc3cccs3)cc(Cl)nc2c1Br [Compound 49, 2-((2R,3R)-3-aminotetrahydro-2H-pyran-2-yl)-3-bromo-5-chloro-N-(thiophen-2-ylmethyl)thieno[3,2-b]pyridin-7-amine] | > 1000 nM | > 1000 nM
Cc1c([C@@H]2CCCC[C@@H]2N)sc2c(NCc3cccs3)cc(Cl)nc12 [Compound 50, 2-((1R,2S)-2-aminocyclohexyl)-5-chloro-3-methyl-N-(thiophen-2-ylmethyl)thieno[3,2-b]pyridin-7-amine] | 300 to 1000 nM | 30 to 300 nM
Cc1c([C@H]2CCCC[C@H]2N)sc2c(NCc3cccs3)cc(Cl)nc12 [Compound 51, 2-((1S,2R)-2-aminocyclohexyl)-5-chloro-3-methyl-N-(thiophen-2-ylmethyl)thieno[3,2-b]pyridin-7-amine] | > 1000 nM | > 1000 nM
N[C@@H]1CCCC[C@@H]1c1sc2c(NCc3cccs3)cc(Cl)nc2c1Br [Compound 52, 2-((1S,2R)-2-aminocyclohexyl)-3-bromo-5-chloro-N-(thiophen-2-ylmethyl)thieno[3,2-b]pyridin-7-amine] | > 1000 nM | > 1000 nM
N[C@H]1CCCC[C@H]1c1sc2c(NCc3cccs3)cc(Cl)nc2c1Br [Compound 53, 2-((1R,2S)-2-aminocyclohexyl)-3-bromo-5-chloro-N-(thiophen-2-ylmethyl)thieno[3,2-b]pyridin-7-amine] | 300 to 1000 nM | 300 to 1000 nM
N[C@@H]1CCCC[C@H]1c1sc2c(NCc3cccs3)cc(Cl)nc2c1Br [Compound 54, 2-((1R,2R)-2-aminocyclohexyl)-3-bromo-5-chloro-N-(thiophen-2-ylmethyl)thieno[3,2-b]pyridin-7-amine] | 30 to 300 nM | 30 to 300 nM
N[C@H]1CCCC[C@@H]1c1sc2c(NCc3cccs3)cc(Cl)nc2c1Br [Compound 55, 2-((1S,2S)-2-aminocyclohexyl)-3-bromo-5-chloro-N-(thiophen-2-ylmethyl)thieno[3,2-b]pyridin-7-amine] | 30 to 300 nM | 30 to 300 nM
